Test [1] deals with R848-driven IRF reporter (Lucia luciferase, ISG54 promoter/IFN-stimulated response elements) in THP-1 cells. The test is described as follows: TLR7/8 (R848) stimulated interferon response element reporter gene assay in THP1-Dual cells. Format: cell-based. The following applies: Homo sapiens, THP-1, 10 μM compound, 1 μM R848, THP1-Dual cells; read-out: R848-driven IRF reporter gene assay (Percent inhibition at 10 μM). As to the method: (§1) Compounds described herein are added to the human leukemic monocyte-like cell line THP-1 for bioactivity assessment. THP1-Dual cells (InvivoGen, San Diego, CA) feature the Lucia gene, a secreted luciferase reporter gene, under the control of an ISG54 minimal promoter in conjunction with five IFN-stimulated response elements. THP1-Dual cells also express a secreted embryonic alkaline phosphatase (SEAP) reporter gene driven by an IFN-β minimal promoter fused to five copies of the NF-κB consensus transcriptional response element and three copies of the c-Rel binding site. As a result, THP1-Dual cells allow the simultaneous study of the NF-κB pathway, by monitoring the activity of SEAP, and the IRF pathway, by assessing the activity of Lucia luciferase.
(§2) THP-1 dual reporter cells were grown in RPMI 1640 culture medium with 2 mM L-glutamine, 25 mM HEPES, 10% heat-inactivated fetal bovine serum, 100 μg/ml Normocin antibiotic (InvivoGen), Pen-Strep antibiotic (100 U/ml-100 μg/ml, InvivoGen). On the day of the assay, cells were seeded in a 384 flat-bottom well plate at 25,000 cells/well and incubated for 2 hours. Cells were then incubated with 10 μM of the compounds described herein or with 1 μM of IKK-16 (Selleck), a potent inhibitor of IκB kinases (IKKs) or with DMSO (vehicle control) for 2 hours, followed by the addition of the synthetic TLR7/8 agonist R848 at 1 μM and incubation for 16 hours. After incubation was concluded, the cultures supernatants were collected and IRF related activity was assessed by measurement of the Lucia luciferase, using Quanti-Luc assay (InvivoGen). NF-κB pathway activity was assessed by quantifying SEAP using Quanti-Blue assay (InvivoGen).
(A reporter such as luciferase makes a cellular process visible.)

Test [2] has as its system R848-driven NFκB reporter (SEAP) in THP-1 cells. Kind of test: TLR7/8 (R848) stimulated NFκB reporter gene assay in THP1-Dual cells. The conditions noted are these: Homo sapiens, THP-1, 10 μM compound, 1 μM R848, THP1-Dual cells; read-out: R848-driven NFκB reporter gene assay (Percent inhibition at 10 μM). Format: cell-based. As to the method:
as §1, §2

Test [3] deals with LPS induced septic shock, C57/B6L mice. The test is described as follows: LPS induced septic shock model in mice. It counts as in vivo. The method, then:
In the LPS induced septic shock model in mice, the TLR4 agonist LPS is injected into the peritoneal cavity of mice, inducing production of pro-inflammatory cytokines that can be measured in blood two hours later (FIG. 2).
Female C57/B6L mice, 5 mice in each group, were injected with LPS (1 mg/kg) to induce septic shock 30 minutes after oral administration of compounds described herein (formulated in Phosal 50) or the controls dexamethasone (formulated in saline), a corticosteroid, and MCC950 (formulated in 0.5% methylcellulose), an inflammasome inhibitor. The mice were euthanized 2 hours after LPS stimulation, and the whole blood was drawn, processed to plasma, and snap frozen. Cytokine levels in plasma were determined by cytometric bead array assay.

Test [4] deals with TNBS-induced colitis, Balb/c mice. The test is described as follows: TNBS-induced model of colitis in mice, dosing from day -1, prophylactic mode. Format: in vivo. The following applies: for IL-1ß in plasma / IL-6 in plasma: vs Vehicle group; for pathological score (crypt structure failure, inflammatory cell infiltration): H&E colon. The method, then:
(§3) Female Balb/c mice aged 8 weeks and weighing 18-20 g were housed under standard conditions. The mice were divided into groups with 8-10 mice in each group by body weight. Mice in sham group received intracolonic injection with 50% ethanol (0.1 mL) at day 0, whereas mice in other Trinitrobenzene sulfonic acid (TNBS) colitis model groups received intracolonic injection of 2% TNBS solution in ethanol (0.1 mL) at day 0. The reference compound Mesalazine (Selleck) and test articles described here were dosed from day-1 to day 6. Day 6 was the endpoint, and samples were immediately harvested for the last endpoint. Mesalazine was dissolved in distilled water (pH 7.0) and test articles were dissolved in Phosal 50 PG for delivery by oral gavage.
As noted, dosing of the compounds described herein, as well as the positive control mesalamine, began one day before TNBS administration. Animals in this scenario have not yet developed colitis symptoms before administration of test articles. For this reason, we refer to these conditions as “prophylactic mode”.
(§4) Body weight and Disease Activity Index (DAI) scores were recorded daily to assess the colitis. DAI score was the sum of the weight loss score, stool score and bleeding sub-scores. A blinded scoring system was employed to assess the colitis. The DAI scorer blinded to the group information and animal ID was responsible for the stool consistency and bleeding evaluations. If there was no blood visible with naked eyes, the Fecal occult blood (FOB) test was performed with a fecal occult blood test strip (the improved pyramidon method).
(§5) Colon tissue morphology, damage and healing were assessed by histopathology. The colons were harvested, mesentery and adipose tissue were carefully removed, and internal contents were removed by rinsing with cold PBS. The colons were Swiss-rolled and fixed in neutralized paraformaldehyde followed by H&E staining. Clinical pathologists reviewed the H&E staining and scored blinded with animal ID. The pathological scoring standards were: crypt architecture (normal, 0-severe crypt distortion with loss of entire crypts, 3), degree of inflammatory cell infiltration (normal, 0-dense inflammatory infiltrate, 3), muscle thickening (base of crypt sits on the muscularis mucosae, 0-marked muscle thickening present, 3), goblet cell depletion (absent, 0-present, 1) and crypt abscess (absent, 0-present, 1).
The plasma was collected at Day-1 for PK and cytokine (IL-1ß and IL-6) analysis by mandibular venipuncture.
(§6) The data was compared by ANOVA with post-hoc Dunnett's multiple comparisons test using Graph Pad Prism 7.0 software (San Diego, CA, USA). P-value<0.05 was considered as statistically significant difference. For pairwise comparison of histology scores and cytokines, unpaired t-test was used to calculate statistical significance. Data was expressed as mean±standard error of mean. In figures, statistical significance is denoted by asterisks: *p<0.05 **p<0.01 ***p<0.005, ****p<0.0001.

The test system is the same in test [5]. Kind of test: TNBS-induced model of colitis in mice, dosing from day 2, therapeutic mode. It counts as in vivo. The conditions noted are these: for IL-1B in plasma / IL-6 in plasma: dosing from day 2, vs Vehicle group. The method, then: as §3, §4, §5, §6
Procedures were identical to those in Example 26, except that dosing of the compounds described herein, as well as the positive control mesalamine, began on the second day after TNBS administration, as diagrammed in FIG. 18. Animals in this scenario have developed colitis symptoms before administration of test articles. This is more similar to the clinical scenario with patients with inflammatory bowel disorder presenting with symptoms. For this reason, we refer to these conditions as “therapeutic mode”.

The mark [6] stands for this setting: 30 mg/kg PO in Phosal 50, 30 min before LPS 1 mg/kg, plasma 2 hours after LPS, vs vehicle.
Where [7] appears, read: 30 mg/kg PO, QD, dosing from day 2.

One may read the inhibition as the percentage by which the read-out fell short of the control. The ED50 is the midpoint of the dose-response relation.

Take `CN1[C@@H](C(=O)O)CC[C@@H]1[C@@H]1COC(c2ccccc2O)=N1` [Compound I-1, (2R,5R)-5-((R)-2-(2-hydroxyphenyl)-4,5-dihydrooxazol-4-yl)-1-methylpyrrolidine-2-carboxylic acid]: the inhibition at 10 µM in test [1] amounted to 20%; in test [2], 10%.

On to `CN1[C@@H](C(=O)O)CC[C@H]1[C@@H]1COC(c2ccccc2O)=N1` [Compound I-2, (2R,5S)-5-((R)-2-(2-hydroxyphenyl)-4,5-dihydrooxazol-4-yl)-1-methylpyrrolidine-2-carboxylic acid], for which the inhibition at 10 µM in test [1] was determined as 31%; in test [2], 5%.

Consider `CN1[C@@H](C(=O)O)CC[C@@H]1[C@@H]1CSC(c2ccccc2O)=N1` [Compound I-3, (2R,5R)-5-((R)-2-(2-hydroxyphenyl)-4,5-dihydrothiazol-4-yl)-1-methylpyrrolidine-2-carboxylic acid], for which the inhibition at 10 µM in test [1] is not below 50%. Moreover, in test [2], the inhibition at 10 µM worked out at 40%. Further, in test [3] (setting [6]), the IFNγ in plasma result was “statistically significant decreases”, the IL-12p70 in plasma result is reported as “statistically significant decreases” and the TNFα in plasma result is on record as “statistically significant decreases”. Besides, the “body weight (% initial weight) recovery” value in test [4] (30 mg/kg, PO, QD, day -1 to day 6) is on record as “faster recovery rate”. For the same compound, in test [4] (1, 3, 10 and 30 mg/kg PO, QD), the total histology scores result is “lower”; the IL-1ß in plasma result was “decreased”; the IL-6 in plasma result is given as “decreased”; the “pathological score (crypt structure failure, inflammatory cell infiltration)” value was “lower”. In addition, the “Disease Activity Index (DAI) scores” value in test [4] (1, 3, 10 and 30 mg/kg PO, QD, day -1 to day 6) is on record as “dose-dependent improvement”. Besides, in test [4] (Mus musculus, 144 h, PO, QD, day -1 to day 6, read-out: dose for half maximal effect or ED50 (DAI score at Day 6)), the ED50 stood at 15 mg/kg. Moreover, the “colon recovery and mucosal healing” value in test [4] (in a dose-dependent manner, prophylactic mode) was “promoted the colon recovery and mucosal healing”. Also, in test [5] (setting [7]), the “Disease Activity Index (DAI) scores” value is reported as “improvement”, the “body weight (% initial weight) recovery” value is on record as “faster recovery rate” and the total histology scores result is “lower”. For the same compound, in test [5] (30 mg/kg PO, QD), the IL-1B in plasma result is given as “decreased” and the IL-6 in plasma entry is “decreased”. For the same compound, the “colon recovery and mucosal healing” value in test [5] (therapeutic mode) is “promoted the colon recovery and mucosal healing”.

`CNC(=O)[C@H]1CC[C@@H]([C@@H]2CSC(c3ccccc3O)=N2)N1C` [Compound I-5, (2R,5S)-5-((R)-2-(2-hydroxyphenyl)-4,5-dihydrothiazol-4-yl)-N,1-dimethyl pyrrolidine-2-carboxamide]: the inhibition at 10 µM in test [1] came to 17%; in test [2], 27%.

`COCCOCCOc1ccc(C2=N[C@H]([C@@H]3CC[C@H](C(=O)O)N3C)CO2)c(O)c1` [Compound I-7, (2R,5S)-5-((R)-2-(2-hydroxy-4-(2-(2-methoxyethoxy)ethoxy)phenyl)-4,5-dihydrooxazol-4-yl)-1-methylpyrrolidine-2-carboxylic acid]: the inhibition at 10 µM in test [1] is not below 50%; in test [2], 28%.

In the case of `COCCOCCOc1ccc(C2=N[C@H]([C@@H]3CC[C@H](C(=O)O)N3C)CS2)c(O)c1` [Compound I-8, (2R,5S)-5-((R)-2-(2-hydroxy-4-(2-(2-methoxyethoxy)ethoxy)phenyl)-4,5-dihydrothiazol-4-yl)-1-methylpyrrolidine-2-carboxylic acid], the inhibition at 10 µM in test [1] and in test [2] was not below 50% throughout.

As for `COCCOCCOc1ccc(C2=N[C@H]([C@H]3CC[C@H](C(=O)O)N3C)CS2)c(O)c1` [Compound I-10, (2R,5R)-5-((R)-2-(2-hydroxy-4-(2-(2-methoxyethoxy)ethoxy)phenyl)-4,5-dihydrothiazol-4-yl)-1-methylpyrrolidine-2-carboxylic acid], the values for the inhibition at 10 µM in test [1] and in test [2] were 3% and 14%, respectively.

Take `CN1[C@@H](C(=O)O)CC[C@@H]1[C@@H]1COC(c2ncccc2O)=N1` [Compound I-11, (2R,5R)-5-((R)-2-(3-hydroxypyridin-2-yl)-4,5-dihydrooxazol-4-yl)-1-methylpyrrolidine-2-carboxylic acid]: the inhibition at 10 µM in test [1] came to 5%; in test [2] it was 6%.

Consider `Nc1ccc(O)c(C(=O)O)c1` [Mesalazine, reference compound], for which the total histology scores result is on record as “lower” in test [4] (100 mg/kg PO, QD) and “lower” in test [5] (100 mg/kg PO, QD, dosing from day 2). In test [4] (100 mg/kg PO, QD), the “pathological score (crypt structure failure, inflammatory cell infiltration)” value is “lower”. In addition, the “body weight (% initial weight) recovery” value in test [4] (100 mg/kg, QD, day -1 to day 6) is reported as “faster recovery rate”; in test [5] (100 mg/kg, QD, dosing from day 2) it was “faster recovery rate”. The IL-1ß in plasma result in test [4] (100 mg/kg, QD) was “decreased”. The IL-6 in plasma result was “decreased” in test [4] (100 mg/kg, QD) and “decreased” in test [5] (100 mg/kg, QD). The IL-1B in plasma entry in test [5] (100 mg/kg, QD) is “decreased”.

Take `C[C@@H]1C[C@H]2[C@@H]3CCC4=CC(=O)C=C[C@]4(C)[C@@]3(F)[C@@H](O)C[C@]2(C)[C@@]1(O)C(=O)CO` [dexamethasone, reference compound]: the “activity on plasma cytokines (positive control)” value in test [3] (1.5 mg/kg PO, formulated in saline) is reported as “active”.
